Measured values published in the supplement of paper PMC6045584.
± gives the standard deviation of the averaged measurements.

Tests used:
[1] = compound: CCc1cc(Nc2nccc(-c3c(-c4ccc(OC)c(C(=O)Nc5c(F)cccc5F)c4)nc4ccccn34)n2)c(OC)cc1N1CCC(N2CCN(S(C)(=O)=O)CC2)CC1; experiment: surviving fraction relative to DMSO-only wells; higher = less growth inhibition; conditions: exposure time: 5 days
Method in brief: (§1)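 Continuous five-day exposure to inhibitors at 0.5, 1, 5, 10, 50, 100, 500 and 1000 nM started 24 hours after log-phase tumour cell lines were seeded at 250–500 cells per well in 384-well plates. Luminescence was read after 10 minutes at room temperature. Viability is given as surviving fraction, meaning CellTiter-Glo luminescence normalised to the median of DMSO-only wells.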

[2] = compound: C[C@H](CN(C)C)Oc1nc(Nc2cc3cccc(Cl)c3cn2)cnc1C#N; experiment: as above; conditions: exposure time: 5 days
Method in brief: as §1

| Test System | surviving fraction ([1]; 0.5 nM) | surviving fraction ([1]; 1 nM) | surviving fraction ([1]; 5 nM) | surviving fraction ([1]; 10 nM) | surviving fraction ([1]; 50 nM) | surviving fraction ([1]; 100 nM) | surviving fraction ([1]; 500 nM) | surviving fraction ([1]; 1000 nM) | surviving fraction ([2]; 0.5 nM) | surviving fraction ([2]; 1 nM) | surviving fraction ([2]; 5 nM) | surviving fraction ([2]; 10 nM) | surviving fraction ([2]; 50 nM) | surviving fraction ([2]; 100 nM) | surviving fraction ([2]; 500 nM) | surviving fraction ([2]; 1000 nM) |
| --- | --- | --- | --- | --- | --- | --- | --- | --- | --- | --- | --- | --- | --- | --- | --- | --- |
| SYO1 SYNOVIAL | 0.945 ± 0.041 | 0.992 ± 0.031 | 0.948 ± 0.048 | 0.945 ± 0.045 | 0.969 ± 0.034 | 1.02 ± 0.044 | 0.949 ± 0.03 | 0.895 ± 0.022 | 0.955 ± 0.038 | 0.963 ± 0.015 | 0.969 ± 0.017 | 0.941 ± 0.023 | 0.97 ± 0.026 | 0.835 ± 0.015 | 0.34 ± 0.0094 | 0.197 ± 0.014 |
| T47D BREAST | 1.06 ± 0.042 | 1.04 ± 0.027 | 1.05 ± 0.031 | 1.07 ± 0.016 | 1.06 ± 0.056 | 1.14 ± 0.051 | 1.03 ± 0.036 | 0.997 ± 0.014 | 1.02 ± 0.043 | 1.06 ± 0.044 | 1.04 ± 0.027 | 1.03 ± 0.032 | 1.1 ± 0.046 | 1.14 ± 0.029 | 0.919 ± 0.063 | 0.766 ± 0.024 |
| U2OS BONE | 0.992 ± 0.02 | 1 ± 0.017 | 1.06 ± 0.025 | 1.031 ± 0.0015 | 1.06 ± 0.023 | 1.06 ± 0.035 | 1.01 ± 0.013 | 0.975 ± 0.019 | 1.04 ± 0.053 | 1 ± 0.039 | 1.02 ± 0.027 | 0.993 ± 0.081 | 1.05 ± 0.043 | 1.03 ± 0.025 | 0.277 ± 0.028 | 0.159 ± 0.013 |
| VCAP PROSTATE | 1.02 ± 0.1 | 1.05 ± 0.072 | 0.986 ± 0.12 | 1.07 ± 0.042 | 0.984 ± 0.091 | 1.05 ± 0.03 | 1.03 ± 0.055 | 0.9673 ± 0.0061 | 0.969 ± 0.098 | 1.03 ± 0.14 | 1.1 ± 0.11 | 1.08 ± 0.11 | 1.12 ± 0.033 | 1.01 ± 0.16 | 0.715 ± 0.12 | 0.35 ± 0.039 |
| VP229 BREAST | 1.13 ± 0.059 | 1.08 ± 0.033 | 1.24 ± 0.11 | 1.17 ± 0.063 | 1.09 ± 0.13 | 1.09 ± 0.052 | 1.18 ± 0.17 | 0.875 ± 0.12 | 0.984 ± 0.1 | 1.02 ± 0.056 | 1.1 ± 0.12 | 1.04 ± 0.14 | 1.05 ± 0.096 | 1.09 ± 0.042 | 1.04 ± 0.086 | 0.86 ± 0.028 |
| YAMATO SYNOVIAL | 1.32 ± 0.085 | 1.34 ± 0.1 | 1.44 ± 0.085 | 1.28 ± 0.023 | 1.36 ± 0.066 | 1.42 ± 0.1 | 1.2 ± 0.19 | 0.873 ± 0.091 | 1.12 ± 0.038 | 1.24 ± 0.086 | 1.17 ± 0.05 | 1.2 ± 0.13 | 1.18 ± 0.067 | 1.18 ± 0.037 | 0.806 ± 0.052 | 0.622 ± 0.074 |
| ZR751 BREAST | 0.886 ± 0.14 | 0.98 ± 0.062 | 0.876 ± 0.11 | 0.935 ± 0.1 | 0.87 ± 0.07 | 0.895 ± 0.12 | 0.928 ± 0.094 | 0.954 ± 0.093 | 1.07 ± 0.13 | 1.07 ± 0.085 | 1.08 ± 0.17 | 0.991 ± 0.078 | 0.867 ± 0.13 | 0.909 ± 0.15 | 0.543 ± 0.082 | 0.587 ± 0.042 |
